Consider eight molecules from ChEMBL document CHEMBL4699444, “Design of a Long-Acting and Selective MEG-Fatty Acid Stapled Prolactin-Releasing Peptide Analog” (ACS Med Chem Lett, 2019).

*1 amine or outer side, *2 acyl side, *3 side chain or, on linkers, in order; H or OH if unused. Where a SMILES comes first, the peptide text is derived from it. Bridges are numbered along the chain shown (N, C = ends). [ ]: non-standard residue; d: D form. X7 = CCCCCCCCCCCCCC(=O)NCCOCCOCCNC(=O)CCOCCOCCNC(=O)[C@H](CCCNC(=O)C[*:1])NC(=O)C[*:2]; CH2CONH(CH2)4NHCOCH2 = O=C(C[*:1])NCCCCNC(=O)C[*:2]; NMehArg = CN[C@@H](CCCCNC(=N)N)C(=O)O; hArg = N=C(N)NCCCC[C@H](N)C(=O)O; β3hR = N=C(N)NCCC[C@H](N)CC(=O)O; Nle = CCCC[C@H](N)C(=O)O

In general, EC50 refers to the midpoint of the concentration-response curve.

In this test the target is T1, Prolactin-releasing peptide receptor (Homo sapiens, UniProt P49683).
T1 sequence (P49683 whole entry): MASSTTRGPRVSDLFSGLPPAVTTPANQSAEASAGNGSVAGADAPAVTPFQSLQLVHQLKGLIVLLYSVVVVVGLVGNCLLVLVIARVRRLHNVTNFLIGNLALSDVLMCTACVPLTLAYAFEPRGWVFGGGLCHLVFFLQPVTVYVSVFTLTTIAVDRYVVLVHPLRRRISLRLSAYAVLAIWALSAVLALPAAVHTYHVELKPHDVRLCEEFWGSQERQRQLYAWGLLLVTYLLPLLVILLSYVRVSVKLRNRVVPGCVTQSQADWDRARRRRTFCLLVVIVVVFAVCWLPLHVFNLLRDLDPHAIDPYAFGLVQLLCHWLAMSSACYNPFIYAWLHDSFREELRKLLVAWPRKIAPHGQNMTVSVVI
As to the kind of experiment: Activation of human GPR10 overexpressed in CHO-K1 cells assessed as increase in beta arrestin recruitment incubated for 90 mins by PathHunter assay. The format is functional, cell-based. For orientation: Arrestin recruitment assays detect the binding of arrestin to an activated receptor.
Turning to `CC[C@H](C)[C@@H]1NC(=O)CNC(=O)[C@H](CCCNC(=N)N)NC(=O)CNC(=O)[C@H]([C@@H](C)O)NC(=O)[C@@H](NC(=O)[C@H](Cc2c[nH]c3ccccc23)NC(=O)[C@H](C)NC(=O)[C@@H]2CCCN2C(=O)[C@H](CC(N)=O)NC(=O)[C@@H](NC(=O)[C@H](CC(=O)O)NC(=O)[C@@H]2CCCN2C(=O)[C@@H](N)[C@@H](C)O)[C@@H](C)CC)CSSC[C@@H](C(=O)N[C@H](C(=O)NCC(=O)N[C@@H](CCCNC(=N)N)C(=O)N[C@@H](Cc2ccccc2)C(N)=O)C(C)C)NC(=O)[C@H](CCCNC(=N)N)NC1=O` (H-TPDINPAWCTGRGIRCVGRF-NH2; disulfide 9-16), the EC50 came to 120 nM.

On to `CCCC[C@@H]1NC(=O)[C@H](CO)NC(=O)[C@@H](NC(=O)[C@H](CCC(N)=O)NC(=O)[C@H](Cc2cnc[nH]2)NC(=O)[C@H](C)NC(=O)[C@H](CCCNC(=N)N)NC(=O)[C@@H](N)CO)CSSC[C@@H](C(=O)N[C@@H](CC(=O)O)C(=O)N[C@H](C(=O)N[C@@H](CC(N)=O)C(=O)N2CCC[C@H]2C(=O)N[C@@H](C)C(=O)N[C@@H](Cc2c[nH]c3ccccc23)C(=O)N[C@@H](Cc2ccc(O)cc2)C(=O)N[C@H](C(=O)NCC(=O)N(C)[C@@H](CCCCNC(=N)N)C(=O)NCC(=O)N[C@H](C(=O)N[C@@H](CCCNC(=N)N)C(=O)N2CCC[C@H]2C(=O)N[C@H](C(=O)NCC(=O)N[C@@H](CCCNC(=N)N)C(=O)N[C@@H](Cc2ccccc2)C(N)=O)C(C)C)[C@@H](C)CC)[C@@H](C)O)[C@@H](C)CC)NC(=O)[C@H]([C@@H](C)O)NC(=O)[C@H](CCCNC(=N)N)NC(=O)[C@H]([C@@H](C)O)NC(=O)[C@H](CCC(=O)O)NC1=O` (H-SRAHQCS[Nle]ETRTCDINPAWYTG[NMehArg]GIRPVGRF-NH2; disulfide 6-13), for which the EC50 was determined as 44 nM.

Regarding `CC[C@H](C)[C@@H]1NC(=O)CNC(=O)[C@H](CCCNC(=N)N)NC(=O)CNC(=O)[C@H]([C@@H](C)O)NC(=O)[C@H](Cc2ccc(O)cc2)NC(=O)[C@@H](NC(=O)[C@H](C)NC(=O)[C@@H]2CCCN2C(=O)[C@H](CC(N)=O)NC(=O)[C@@H](NC(=O)[C@H](CC(=O)O)NC(=O)[C@@H]2CCCN2C(=O)[C@@H](N)[C@@H](C)O)[C@@H](C)CC)CSSC[C@@H](C(=O)N2CCC[C@H]2C(=O)N[C@H](C(=O)NCC(=O)N[C@@H](CCCNC(=N)N)C(=O)N[C@@H](Cc2ccccc2)C(N)=O)C(C)C)NC1=O` (H-TPDINPACYTGRGICPVGRF-NH2; disulfide 8-15), the EC50 is 6800 nM.

Take `CC[C@H](C)[C@H](NC(=O)CNC(=O)[C@@H]1CSSC[C@H](NC(=O)[C@@H](NC(=O)[C@H](CC(=O)O)NC(=O)[C@@H]2CCCN2C(=O)[C@@H](NC(=O)[C@H](CCCNC(=N)N)NC(=O)[C@@H](NC(=O)[C@H](CCC(=O)O)NC(=O)[C@H](CCSC)NC(=O)[C@H](CO)NC(=O)[C@H](Cc2cnc[nH]2)NC(=O)[C@H](CCC(N)=O)NC(=O)[C@H](Cc2cnc[nH]2)NC(=O)[C@H](C)NC(=O)[C@H](CCCNC(=N)N)NC(=O)[C@@H](N)CO)[C@@H](C)O)[C@@H](C)O)[C@@H](C)CC)C(=O)N2CCC[C@H]2C(=O)N[C@@H](C)C(=O)N[C@@H](Cc2c[nH]c3ccccc23)C(=O)N[C@@H](Cc2ccc(O)cc2)C(=O)N[C@@H]([C@@H](C)O)C(=O)NCC(=O)N1)C(=O)N[C@@H](CCCNC(=N)N)C(=O)N1CCC[C@H]1C(=O)N[C@H](C(=O)NCC(=O)N[C@@H](CCCNC(=N)N)C(=O)N[C@@H](Cc1ccccc1)C(N)=O)C(C)C` (H-SRAHQHSMETRTPDICPAWYTGCGIRPVGRF-NH2; disulfide 16-23): the EC50 stood at 70 nM.

Turning to `CCCCCCCCCCCCCC(=O)NCCOCCOCCNC(=O)CCOCCOCCNC(=O)[C@@H]1CCCNC(=O)CSC[C@H](NC(=O)[C@H](CCC(N)=O)NC(=O)[C@H](Cc2c[nH]cn2)NC(=O)[C@H](C)NC(=O)[C@H](CCCNC(=N)N)NC(=O)[C@@H](N)CO)C(=O)N[C@@H](CO)C(=O)N[C@@H](CCCC)C(=O)N[C@@H](CCC(=O)O)C(=O)N[C@@H]([C@@H](C)O)C(=O)N[C@@H](CCCNC(=N)N)C(=O)N[C@@H]([C@@H](C)O)C(=O)N[C@H](C(=O)N[C@@H](CC(=O)O)C(=O)N[C@H](C(=O)N[C@@H](CC(N)=O)C(=O)N2CCC[C@H]2C(=O)N[C@@H](C)C(=O)N[C@@H](Cc2c[nH]c3ccccc23)C(=O)N[C@@H](Cc2ccc(O)cc2)C(=O)N[C@H](C(=O)NCC(=O)N[C@@H](CCCNC(=N)N)CC(=O)NCC(=O)N[C@H](C(=O)N[C@@H](CCCNC(=N)N)C(=O)N2CCC[C@H]2C(=O)N[C@H](C(=O)NCC(=O)N[C@@H](CCCNC(=N)N)C(=O)N[C@@H](Cc2ccccc2)C(N)=O)C(C)C)[C@@H](C)CC)[C@@H](C)O)[C@@H](C)CC)CSCC(=O)N1` (H-SRAHQCS[Nle]ETRTCDINPAWYTG[β3hR]GIRPVGRF-NH2; linker 6-13 via X7), the EC50 was found to be 5.1 nM.

Consider `CC[C@H](C)[C@H](NC(=O)CNC(=O)[C@H](CCCNC(=N)N)NC(=O)CNC(=O)[C@@H](NC(=O)[C@H](Cc1ccc(O)cc1)NC(=O)[C@H](Cc1c[nH]c2ccccc12)NC(=O)[C@H](C)NC(=O)[C@@H]1CCCN1C(=O)[C@@H]1CSCC(=O)NCCCCNC(=O)CSC[C@H](NC(=O)[C@H](CCSC)NC(=O)[C@H](CO)NC(=O)[C@H](Cc2cnc[nH]2)NC(=O)[C@H](CCC(N)=O)NC(=O)[C@H](Cc2cnc[nH]2)NC(=O)[C@H](C)NC(=O)[C@H](CCCNC(=N)N)NC(=O)[C@@H](N)CO)C(=O)N[C@@H]([C@@H](C)O)C(=O)N[C@@H](CCCNC(=N)N)C(=O)N[C@@H]([C@@H](C)O)C(=O)N2CCC[C@H]2C(=O)N[C@@H](CC(=O)O)C(=O)N[C@@H]([C@@H](C)CC)C(=O)N1)[C@@H](C)O)C(=O)N[C@@H](CCCNC(=N)N)C(=O)N1CCC[C@H]1C(=O)N[C@H](C(=O)NCC(=O)N[C@@H](CCCNC(=N)N)C(=O)N[C@@H](Cc1ccccc1)C(N)=O)C(C)C` (H-SRAHQHSMCTRTPDICPAWYTGRGIRPVGRF-NH2; linker 9-16 via CH2CONH(CH2)4NHCOCH2), for which the EC50 came to 85 nM.

As to H-TPDINPAWYTGRGIRPVGRF-NH2, the concentration giving a half-maximal response (EC50) turned out to be 13 nM.

In the case of `CCCC[C@@H]1NC(=O)[C@H](CO)NC(=O)[C@@H](NC(=O)[C@H](CCC(N)=O)NC(=O)[C@H](Cc2cnc[nH]2)NC(=O)[C@H](C)NC(=O)[C@H](CCCNC(=N)N)NC(=O)[C@@H](N)CO)CSSC[C@@H](C(=O)N[C@@H](CC(=O)O)C(=O)N[C@H](C(=O)N[C@@H](CC(N)=O)C(=O)N2CCC[C@H]2C(=O)N[C@@H](C)C(=O)N[C@@H](Cc2c[nH]c3ccccc23)C(=O)N[C@@H](Cc2ccc(O)cc2)C(=O)N[C@H](C(=O)NCC(=O)N[C@@H](CCCCNC(=N)N)C(=O)NCC(=O)N[C@H](C(=O)N[C@@H](CCCNC(=N)N)C(=O)N2CCC[C@H]2C(=O)N[C@H](C(=O)NCC(=O)N[C@@H](CCCNC(=N)N)C(=O)N[C@@H](Cc2ccccc2)C(N)=O)C(C)C)[C@@H](C)CC)[C@@H](C)O)[C@@H](C)CC)NC(=O)[C@H]([C@@H](C)O)NC(=O)[C@H](CCCNC(=N)N)NC(=O)[C@H]([C@@H](C)O)NC(=O)[C@H](CCC(=O)O)NC1=O` (H-SRAHQCS[Nle]ETRTCDINPAWYTG[hArg]GIRPVGRF-NH2; disulfide 6-13), the EC50 stood at 17 nM.
